Assay results reported in the NIST ThermoML archive (doi:10.1021/je700099w).
± gives the expanded uncertainty stated by the source.

Key:
[1] = refractive index (Na D-line) (dimensionless); settings: 298.15 K, 101.33 kPa, Liquid
[2] = 298.15 K; 101.33 kPa; Liquid

Row | SMILES | refractive index ([1]; Standard Abbe refractometry) | refractive index [1] | mass density [2] [kg/m3]
1 | CCCCn1cc[n+](C)c1.F[P-](F)(F)(F)(F)F [1-butyl-3-methylimidazolium hexafluorophosphate] | – | 1.40937 ± 0.0011 | 1367.3 ± 2.9
2 | CCCCCCn1cc[n+](C)c1.F[P-](F)(F)(F)(F)F [1-hexyl-3-methylimidazolium hexafluorophosphate] | – | 1.41787 ± 0.0011 | 1293.7 ± 2.5
3 | CCCCCCCC[n+]1ccn(C)c1.F[P-](F)(F)(F)(F)F [1-octyl-3-methylimidazolium hexafluorophosphate] | – | 1.42302 ± 0.0011 | 1235.7 ± 2.2

The next lines start with results.

Row | refractive index ([1]; Standard Abbe refractometry) | SMILES | refractive index [1] | mass density [2] [kg/m3]
4 | 1.39726 ± 0.00072 | CCCCO [butan-1-ol] | – | 805.6 ± 0.5
5 | 1.40797 ± 0.00075 | CCCCCO [pentan-1-ol] | – | 810.8 ± 0.8
6 | 1.38305 ± 0.00075 | CCCO [propan-1-ol] | – | 799.6 ± 0.8
